Reference: PubChem BioAssay (NCI)
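Test compounds were applied to cells in 96-well plates for 48 hours at 5 doses. TGI: concentration producing complete growth inhibition.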

Assays:
Assay in all cases: inhibition of tumour cell growth, NCI panel, 48 h
786-0 renal = test system: 786-0 renal
A498 renal = test system: A498 renal
A549 NSCLC = test system: A549 NSCLC
ACHN renal = test system: ACHN renal
CAKI-1 renal = test system: CAKI-1 renal
CCRF-CEM leukemia = test system: CCRF-CEM leukemia
COLO 205 colon = test system: COLO 205 colon
DLD-1 colon = test system: DLD-1 colon
DMS 114 small cell lung = test system: DMS 114 small cell lung
DMS 273 small cell lung = test system: DMS 273 small cell lung
EKVX NSCLC = test system: EKVX NSCLC
HCC-2998 colon = test system: HCC-2998 colon
HCT-116 colon = test system: HCT-116 colon
HCT-15 colon = test system: HCT-15 colon
HL-60(TB) leukemia = test system: HL-60(TB) leukemia
HOP-18 NSCLC = test system: HOP-18 NSCLC
HOP-62 NSCLC = test system: HOP-62 NSCLC
HOP-92 NSCLC = test system: HOP-92 NSCLC
HT29 colon = test system: HT29 colon
IGROV1 ovarian = test system: IGROV1 ovarian
K-562 leukemia = test system: K-562 leukemia
KM12 colon = test system: KM12 colon
KM20L2 colon = test system: KM20L2 colon
LOX IMVI melanoma = test system: LOX IMVI melanoma
LXFL 529 NSCLC = test system: LXFL 529 NSCLC
M14 melanoma = test system: M14 melanoma
M19-MEL melanoma = test system: M19-MEL melanoma
MALME-3M melanoma = test system: MALME-3M melanoma
MOLT-4 leukemia = test system: MOLT-4 leukemia
NCI-H226 lung = test system: NCI-H226 lung
NCI-H23 lung = test system: NCI-H23 lung
NCI-H460 lung = test system: NCI-H460 lung
NCI-H522 lung = test system: NCI-H522 lung
OVCAR-3 ovarian = test system: OVCAR-3 ovarian
OVCAR-4 ovarian = test system: OVCAR-4 ovarian
OVCAR-5 ovarian = test system: OVCAR-5 ovarian
OVCAR-8 ovarian = test system: OVCAR-8 ovarian
RPMI-8226 leukemia = test system: RPMI-8226 leukemia
RXF 393 renal = test system: RXF 393 renal
SF-268 CNS = test system: SF-268 CNS
SF-295 CNS = test system: SF-295 CNS
SF-539 CNS = test system: SF-539 CNS
SK-MEL-2 melanoma = test system: SK-MEL-2 melanoma
SK-MEL-28 melanoma = test system: SK-MEL-28 melanoma
SK-MEL-5 melanoma = test system: SK-MEL-5 melanoma
SK-OV-3 ovarian = test system: SK-OV-3 ovarian
SN12C renal = test system: SN12C renal
SNB-19 CNS = test system: SNB-19 CNS
SNB-75 CNS = test system: SNB-75 CNS
SNB-78 CNS = test system: SNB-78 CNS
SW-620 colon = test system: SW-620 colon
TK-10 renal = test system: TK-10 renal
U251 CNS = test system: U251 CNS
UACC-257 melanoma = test system: UACC-257 melanoma
UACC-62 melanoma = test system: UACC-62 melanoma
UO-31 renal = test system: UO-31 renal
SR leukemia = test system: SR leukemia
XF 498 CNS = test system: XF 498 CNS

Compound `O=c1c(-c2ccccc2)c2oc(c1-c1ccccc1)CSCc1cccc(c1)CSC2` has a TGI (786-0 renal) of 89.8 µM, a TGI (A498 renal) of 69.6 µM and a TGI (A549 NSCLC) greater than 100 µM. It also gave a TGI (ACHN renal) greater than 100 µM, a TGI (CAKI-1 renal) greater than 100 µM and a TGI (CCRF-CEM leukemia) greater than 100 µM. It also gave a TGI (COLO 205 colon) greater than 100 µM, a TGI (DLD-1 colon) greater than 100 µM and a TGI (DMS 114 small cell lung) greater than 100 µM. For the same compound, the TGI (DMS 273 small cell lung) was greater than 100 µM, the TGI (EKVX NSCLC) was greater than 100 µM and the TGI (HCC-2998 colon) was greater than 100 µM. The TGI (HCT-116 colon) was greater than 100 µM, the TGI (HCT-15 colon) was greater than 100 µM and the TGI (HL-60(TB) leukemia) was greater than 100 µM. It also gave a TGI (HOP-18 NSCLC) greater than 100 µM, a TGI (HOP-62 NSCLC) of 62.4 µM and a TGI (HOP-92 NSCLC) greater than 100 µM. For the same compound, the TGI (HT29 colon) was greater than 100 µM, the TGI (IGROV1 ovarian) was greater than 100 µM and the TGI (K-562 leukemia) was greater than 100 µM. For the same compound, the TGI (KM12 colon) was greater than 100 µM, the TGI (KM20L2 colon) was greater than 100 µM and the TGI (LOX IMVI melanoma) was greater than 100 µM. The TGI (LXFL 529 NSCLC) was greater than 100 µM, the TGI (M14 melanoma) was greater than 100 µM and the TGI (M19-MEL melanoma) was greater than 100 µM. It also gave a TGI (MALME-3M melanoma) greater than 100 µM, a TGI (MOLT-4 leukemia) greater than 100 µM and a TGI (NCI-H226 lung) greater than 100 µM. For the same compound, the TGI (NCI-H23 lung) was greater than 100 µM, the TGI (NCI-H460 lung) was greater than 100 µM and the TGI (NCI-H522 lung) was greater than 100 µM. For the same compound, the TGI (OVCAR-3 ovarian) was 77 µM, the TGI (OVCAR-4 ovarian) was greater than 100 µM and the TGI (OVCAR-5 ovarian) was greater than 100 µM. It also gave a TGI (OVCAR-8 ovarian) greater than 100 µM, a TGI (RPMI-8226 leukemia) greater than 100 µM and a TGI (RXF 393 renal) of 50.7 µM. The TGI (SF-268 CNS) was 85.2 µM, the TGI (SF-295 CNS) was greater than 100 µM and the TGI (SF-539 CNS) was 60.4 µM. It also gave a TGI (SK-MEL-2 melanoma) greater than 100 µM, a TGI (SK-MEL-28 melanoma) of 87.4 µM and a TGI (SK-MEL-5 melanoma) greater than 100 µM. The TGI (SK-OV-3 ovarian) was 70.1 µM, the TGI (SN12C renal) was greater than 100 µM and the TGI (SNB-19 CNS) was greater than 100 µM. It also gave a TGI (SNB-75 CNS) of 69.1 µM, a TGI (SNB-78 CNS) greater than 100 µM and a TGI (SW-620 colon) greater than 100 µM. The TGI (TK-10 renal) was greater than 100 µM, the TGI (U251 CNS) was 88.2 µM and the TGI (UACC-257 melanoma) was greater than 100 µM. It also gave a TGI (UACC-62 melanoma) greater than 100 µM and a TGI (UO-31 renal) greater than 100 µM.
`N#C/C(=C1/Sc2c(nc[nH]c2=O)N1c1ccccc1)c1nc2ccccc2[nH]1` was tested, and the TGI (A498 renal) was greater than 100 µM, the TGI (A549 NSCLC) was greater than 100 µM and the TGI (ACHN renal) was greater than 100 µM. It also gave a TGI (CAKI-1 renal) greater than 100 µM, a TGI (CCRF-CEM leukemia) greater than 100 µM and a TGI (COLO 205 colon) greater than 100 µM. It also gave a TGI (DLD-1 colon) greater than 100 µM, a TGI (DMS 114 small cell lung) greater than 100 µM and a TGI (DMS 273 small cell lung) greater than 100 µM. It also gave a TGI (EKVX NSCLC) greater than 100 µM, a TGI (HCC-2998 colon) greater than 100 µM and a TGI (HCT-116 colon) greater than 100 µM. The TGI (HCT-15 colon) was greater than 100 µM, the TGI (HL-60(TB) leukemia) was greater than 100 µM and the TGI (HOP-62 NSCLC) was greater than 100 µM. It also gave a TGI (HOP-92 NSCLC) greater than 100 µM, a TGI (HT29 colon) greater than 100 µM and a TGI (IGROV1 ovarian) greater than 100 µM. The TGI (K-562 leukemia) was greater than 100 µM, the TGI (KM12 colon) was greater than 100 µM and the TGI (KM20L2 colon) was greater than 100 µM. The TGI (LXFL 529 NSCLC) was greater than 100 µM, the TGI (M14 melanoma) was greater than 100 µM and the TGI (M19-MEL melanoma) was greater than 100 µM. It also gave a TGI (MALME-3M melanoma) greater than 100 µM, a TGI (MOLT-4 leukemia) greater than 100 µM and a TGI (NCI-H23 lung) greater than 100 µM. It also gave a TGI (NCI-H460 lung) greater than 100 µM, a TGI (NCI-H522 lung) greater than 100 µM and a TGI (OVCAR-3 ovarian) greater than 100 µM. The TGI (OVCAR-4 ovarian) was greater than 100 µM, the TGI (OVCAR-5 ovarian) was greater than 100 µM and the TGI (OVCAR-8 ovarian) was greater than 100 µM. The TGI (RPMI-8226 leukemia) was greater than 100 µM, the TGI (SF-268 CNS) was greater than 100 µM and the TGI (SF-295 CNS) was greater than 100 µM. For the same compound, the TGI (SF-539 CNS) was greater than 100 µM, the TGI (SK-MEL-2 melanoma) was greater than 100 µM and the TGI (SK-MEL-28 melanoma) was greater than 100 µM. The TGI (SK-MEL-5 melanoma) was greater than 100 µM, the TGI (SK-OV-3 ovarian) was greater than 100 µM and the TGI (SN12C renal) was greater than 100 µM. It also gave a TGI (SNB-19 CNS) greater than 100 µM, a TGI (SNB-75 CNS) greater than 100 µM and a TGI (SNB-78 CNS) greater than 100 µM. The TGI (SR leukemia) was greater than 100 µM, the TGI (SW-620 colon) was greater than 100 µM and the TGI (TK-10 renal) was greater than 100 µM. It also gave a TGI (U251 CNS) greater than 100 µM, a TGI (UACC-257 melanoma) greater than 100 µM and a TGI (UACC-62 melanoma) greater than 100 µM. For the same compound, the TGI (UO-31 renal) was greater than 100 µM and the TGI (XF 498 CNS) was greater than 100 µM.
